The values below come from paper PMC5923399 (Marine Drugs, 2018).

In assay [1] the target is T1, α9α10 nAChR (Rattus norvegicus, UniProt P43144+Q9JLB5).
T1 construct: expressed in transfected cells; host or cells: Xenopus oocytes (cRNA injection)
To be noted: read-out: IC50 α9α10; cited from earlier work.

The target of another assay is T2, rat α3β2 nAChRs (Rattus norvegicus, UniProt P04757+P12390).
T2 construct: expressed in transfected cells; host or cells: Xenopus oocytes (cRNA injection)
The assay can be described thus: cell-based.

A further assay deals with T3, GABABR-coupled Cav2.2 (Homo sapiens, UniProt O75899+Q9UBS5).
T3 construct: expressed in transfected cells; host or cells: HEK293T cells, transient transfection; GABAB subunit plasmids from David J. Adams, University of Wollongong
As to the kind of experiment: cell-based. Also noted: species or system human GABABR and rat Cav2.2.

For another assay, the target named is T4, α4β2 nAChR (Rattus norvegicus, UniProt P09483+P12390).
T4 construct: expressed in transfected cells; host or cells: Xenopus oocytes (cRNA injection)
As to the kind of experiment: cell-based.

Assay [2] has as its target T1, α9α10 nAChR. As to the kind of experiment: cell-based.
In another assay the target is T5, α7 nAChR (Rattus norvegicus, UniProt Q05941).
T5 construct: expressed in transfected cells; host or cells: Xenopus oocytes (cRNA injection)
The assay can be described thus: cell-based.

Another assay concerns the target T6, α4β4 nAChR (Rattus norvegicus, UniProt P09483+P12392).
T6 construct: expressed in transfected cells; host or cells: Xenopus oocytes (cRNA injection)
The assay can be described thus: cell-based.

The target in another assay is T7, α2β4 nAChR (Rattus norvegicus, UniProt P12389+P12392).
T7 construct: expressed in transfected cells; host or cells: Xenopus oocytes (cRNA injection)
The assay can be described thus: cell-based.

For the next assay, the target named is T8, α3β4 nAChR (Rattus norvegicus, UniProt P04757+P12392).
T8 construct: expressed in transfected cells; host or cells: Xenopus oocytes (cRNA injection)
The assay can be described thus: cell-based.

The next assay deals with T9, α2β2 nAChR (Rattus norvegicus, UniProt P12389+P12390).
T9 construct: expressed in transfected cells; host or cells: Xenopus oocytes (cRNA injection)
As to the kind of experiment: cell-based.

Structures are written as SMILES. Where two headings read alike, the source gives them in different places. Where a SMILES comes first, the peptide text is derived from it. Bridges are numbered along the chain shown (N, C = ends).

T3 sequence (Q9UBS5 15-961 limits assumed): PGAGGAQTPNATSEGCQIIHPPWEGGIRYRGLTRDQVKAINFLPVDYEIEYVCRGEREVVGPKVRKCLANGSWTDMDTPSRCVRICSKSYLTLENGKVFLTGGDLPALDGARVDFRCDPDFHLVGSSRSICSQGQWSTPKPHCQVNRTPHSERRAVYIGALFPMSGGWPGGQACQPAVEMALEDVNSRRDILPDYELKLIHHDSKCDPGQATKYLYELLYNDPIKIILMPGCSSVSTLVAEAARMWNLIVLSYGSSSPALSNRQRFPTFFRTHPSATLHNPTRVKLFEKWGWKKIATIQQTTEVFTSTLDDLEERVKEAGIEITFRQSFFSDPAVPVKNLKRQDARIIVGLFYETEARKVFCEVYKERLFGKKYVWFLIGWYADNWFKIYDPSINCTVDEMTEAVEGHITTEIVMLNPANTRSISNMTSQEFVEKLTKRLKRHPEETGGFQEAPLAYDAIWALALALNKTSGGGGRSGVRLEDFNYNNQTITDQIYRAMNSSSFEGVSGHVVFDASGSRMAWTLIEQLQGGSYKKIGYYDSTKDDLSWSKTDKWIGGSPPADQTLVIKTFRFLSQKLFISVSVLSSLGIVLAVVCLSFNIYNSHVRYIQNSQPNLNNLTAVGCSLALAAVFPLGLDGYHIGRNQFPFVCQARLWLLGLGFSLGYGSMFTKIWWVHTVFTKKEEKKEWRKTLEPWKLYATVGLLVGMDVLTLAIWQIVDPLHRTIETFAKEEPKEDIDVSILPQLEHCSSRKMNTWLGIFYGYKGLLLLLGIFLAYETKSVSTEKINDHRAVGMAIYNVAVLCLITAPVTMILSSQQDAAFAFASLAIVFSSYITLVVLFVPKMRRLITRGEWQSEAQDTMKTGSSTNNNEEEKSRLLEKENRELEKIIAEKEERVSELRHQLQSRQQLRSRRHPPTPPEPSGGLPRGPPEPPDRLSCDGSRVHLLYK
T3 sequence (O75899 42-941): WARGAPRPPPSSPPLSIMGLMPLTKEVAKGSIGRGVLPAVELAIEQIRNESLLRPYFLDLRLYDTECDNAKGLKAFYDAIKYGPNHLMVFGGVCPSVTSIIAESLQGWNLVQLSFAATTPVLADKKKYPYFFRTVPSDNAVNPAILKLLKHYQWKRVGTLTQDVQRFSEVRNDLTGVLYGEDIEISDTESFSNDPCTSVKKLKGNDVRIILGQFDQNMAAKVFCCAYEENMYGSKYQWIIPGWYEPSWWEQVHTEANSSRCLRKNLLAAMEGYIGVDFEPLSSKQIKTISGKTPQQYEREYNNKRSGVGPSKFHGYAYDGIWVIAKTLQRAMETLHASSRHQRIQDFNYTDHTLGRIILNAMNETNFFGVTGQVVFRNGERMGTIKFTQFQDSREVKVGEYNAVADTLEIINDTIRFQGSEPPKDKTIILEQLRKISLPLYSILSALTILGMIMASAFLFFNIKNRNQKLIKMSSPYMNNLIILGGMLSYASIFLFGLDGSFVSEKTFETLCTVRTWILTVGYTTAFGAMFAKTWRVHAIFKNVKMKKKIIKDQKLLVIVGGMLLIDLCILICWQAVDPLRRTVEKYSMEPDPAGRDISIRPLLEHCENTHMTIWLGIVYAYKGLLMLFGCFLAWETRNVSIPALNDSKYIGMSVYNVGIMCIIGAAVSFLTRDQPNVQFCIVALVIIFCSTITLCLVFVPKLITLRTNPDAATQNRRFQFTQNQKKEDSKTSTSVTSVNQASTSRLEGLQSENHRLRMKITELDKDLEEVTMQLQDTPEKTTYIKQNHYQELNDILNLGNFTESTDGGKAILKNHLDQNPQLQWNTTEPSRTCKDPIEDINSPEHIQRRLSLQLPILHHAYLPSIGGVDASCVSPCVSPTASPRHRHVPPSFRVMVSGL
T2 sequence (P04757 26-499 limits assumed): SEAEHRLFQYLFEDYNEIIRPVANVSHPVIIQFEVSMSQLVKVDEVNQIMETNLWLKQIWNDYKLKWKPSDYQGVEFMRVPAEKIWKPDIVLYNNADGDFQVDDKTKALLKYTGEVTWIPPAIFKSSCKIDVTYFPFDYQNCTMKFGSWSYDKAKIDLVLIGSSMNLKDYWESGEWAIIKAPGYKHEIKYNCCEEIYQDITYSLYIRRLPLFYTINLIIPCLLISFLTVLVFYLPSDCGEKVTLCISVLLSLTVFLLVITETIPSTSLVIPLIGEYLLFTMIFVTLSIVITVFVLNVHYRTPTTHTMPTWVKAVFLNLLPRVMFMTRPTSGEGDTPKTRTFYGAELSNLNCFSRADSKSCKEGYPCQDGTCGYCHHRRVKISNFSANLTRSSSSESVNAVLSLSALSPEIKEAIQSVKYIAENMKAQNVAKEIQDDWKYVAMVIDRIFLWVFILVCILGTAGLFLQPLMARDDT
T2 sequence (P12390 25-500 limits assumed): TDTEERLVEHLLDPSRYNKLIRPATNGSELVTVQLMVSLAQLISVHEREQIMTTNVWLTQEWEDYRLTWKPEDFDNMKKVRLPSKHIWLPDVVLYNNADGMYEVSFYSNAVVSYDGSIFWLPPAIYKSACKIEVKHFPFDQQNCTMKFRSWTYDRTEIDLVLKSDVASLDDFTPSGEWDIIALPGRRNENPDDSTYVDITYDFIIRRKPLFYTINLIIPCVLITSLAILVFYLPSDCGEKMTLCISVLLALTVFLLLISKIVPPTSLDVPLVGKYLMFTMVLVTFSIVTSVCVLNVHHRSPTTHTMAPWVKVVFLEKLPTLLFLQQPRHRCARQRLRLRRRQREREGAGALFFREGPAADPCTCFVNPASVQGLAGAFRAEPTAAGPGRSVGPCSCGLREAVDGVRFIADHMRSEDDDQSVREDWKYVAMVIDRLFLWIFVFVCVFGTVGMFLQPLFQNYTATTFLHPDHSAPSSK
T1 sequence (P43144 26-479 limits assumed): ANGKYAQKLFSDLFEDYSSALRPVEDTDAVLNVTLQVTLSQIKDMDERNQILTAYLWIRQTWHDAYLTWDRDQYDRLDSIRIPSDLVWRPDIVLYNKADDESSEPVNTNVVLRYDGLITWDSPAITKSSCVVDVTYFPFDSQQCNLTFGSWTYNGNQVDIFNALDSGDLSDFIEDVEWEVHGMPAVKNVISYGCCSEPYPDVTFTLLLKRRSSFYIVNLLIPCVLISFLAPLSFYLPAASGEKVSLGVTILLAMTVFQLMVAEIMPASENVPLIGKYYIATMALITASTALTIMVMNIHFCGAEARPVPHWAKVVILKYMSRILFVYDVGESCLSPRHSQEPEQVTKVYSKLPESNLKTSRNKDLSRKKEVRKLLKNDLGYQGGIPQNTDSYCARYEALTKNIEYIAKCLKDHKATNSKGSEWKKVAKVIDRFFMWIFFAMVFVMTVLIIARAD
T1 sequence (Q9JLB5 25-447 limits assumed): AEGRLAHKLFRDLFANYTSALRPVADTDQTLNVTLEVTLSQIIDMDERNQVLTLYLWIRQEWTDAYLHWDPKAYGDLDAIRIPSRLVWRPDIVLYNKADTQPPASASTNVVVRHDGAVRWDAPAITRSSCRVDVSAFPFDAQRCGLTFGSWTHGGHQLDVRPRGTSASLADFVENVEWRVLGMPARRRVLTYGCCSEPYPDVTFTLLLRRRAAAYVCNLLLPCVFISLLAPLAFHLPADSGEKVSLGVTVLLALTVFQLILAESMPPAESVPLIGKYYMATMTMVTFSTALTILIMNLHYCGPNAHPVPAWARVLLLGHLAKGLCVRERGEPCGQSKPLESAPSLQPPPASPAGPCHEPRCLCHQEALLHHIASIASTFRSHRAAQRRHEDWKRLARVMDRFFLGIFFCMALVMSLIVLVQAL
T9 sequence (P12389 28-511 limits assumed): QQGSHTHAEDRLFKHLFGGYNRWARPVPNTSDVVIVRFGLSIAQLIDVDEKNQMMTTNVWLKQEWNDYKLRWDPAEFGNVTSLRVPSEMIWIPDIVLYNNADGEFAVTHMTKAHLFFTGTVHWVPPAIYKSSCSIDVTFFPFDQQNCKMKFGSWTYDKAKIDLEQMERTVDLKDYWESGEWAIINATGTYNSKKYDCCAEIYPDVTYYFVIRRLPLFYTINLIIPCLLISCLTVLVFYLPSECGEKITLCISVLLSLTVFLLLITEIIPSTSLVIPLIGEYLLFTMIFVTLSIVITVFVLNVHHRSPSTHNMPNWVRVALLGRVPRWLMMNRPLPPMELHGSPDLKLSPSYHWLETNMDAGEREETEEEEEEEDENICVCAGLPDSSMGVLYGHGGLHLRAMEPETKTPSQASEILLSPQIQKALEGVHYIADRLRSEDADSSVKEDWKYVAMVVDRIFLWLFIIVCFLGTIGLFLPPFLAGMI
T9 sequence (P12390 25-500 limits assumed): as the sequence (P12390 25-500 limits assumed) above
T7 sequence (P12389 28-511 limits assumed): as the sequence (P12389 28-511 limits assumed) above
T7 sequence (P12392 21-495 limits assumed): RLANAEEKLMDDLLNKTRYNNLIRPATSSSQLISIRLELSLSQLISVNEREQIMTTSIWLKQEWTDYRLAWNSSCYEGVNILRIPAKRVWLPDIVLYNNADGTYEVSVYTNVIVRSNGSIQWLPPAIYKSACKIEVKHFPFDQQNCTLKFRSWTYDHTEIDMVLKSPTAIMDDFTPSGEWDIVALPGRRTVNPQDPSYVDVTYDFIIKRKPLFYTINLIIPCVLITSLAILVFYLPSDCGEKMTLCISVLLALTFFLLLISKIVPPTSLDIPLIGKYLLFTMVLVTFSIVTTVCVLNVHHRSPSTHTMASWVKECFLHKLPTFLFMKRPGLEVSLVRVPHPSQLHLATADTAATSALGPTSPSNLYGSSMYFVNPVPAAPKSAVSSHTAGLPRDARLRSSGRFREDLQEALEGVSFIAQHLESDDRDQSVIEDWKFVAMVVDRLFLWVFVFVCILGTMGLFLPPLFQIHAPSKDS
T8 sequence (P04757 26-499 limits assumed): as the sequence (P04757 26-499 limits assumed) above
T8 sequence (P12392 21-495 limits assumed): as the sequence (P12392 21-495 limits assumed) above

Consider `CC[C@H](C)[C@@H]1NC(=O)[C@H](Cc2cnc[nH]2)NC(=O)[C@@H]2CCCN2C(=O)[C@H](CC(N)=O)NC(=O)[C@H](CC(N)=O)NC(=O)[C@H](C(C)C)NC(=O)[C@H](CC(N)=O)NC(=O)[C@@H]2CSSC[C@H](NC(=O)CN)C(=O)N[C@@H](CSSC[C@@H](C(N)=O)NC1=O)C(=O)N[C@@H](CO)C(=O)N[C@@H](Cc1cnc[nH]1)C(=O)N1CCC[C@H]1C(=O)N[C@@H](C)C(=O)N2` [RegIIA, reference compound] (H-GCCSHPACNVNNPHIC-NH2; disulfide 2-8, 3-16), for which the IC50 (in general, the concentration needed to halve the response being measured) on α9α10 nAChR [1] is > 1 µM; against rat α3β2 nAChRs it was 0.0345 µM.

Molecule `CC[C@H](C)[C@@H]1NC(=O)[C@H](CCC(=O)O)NC(=O)[C@@H]2CCCN2C(=O)[C@H](Cc2cnc[nH]2)NC(=O)[C@H](CC(=O)O)NC(=O)[C@H](Cc2ccc(O)cc2)NC(=O)[C@H](CC(N)=O)NC(=O)[C@@H]2CSSC[C@H](NC(=O)CN)C(=O)N[C@@H](CSSC[C@@H](C(N)=O)NC1=O)C(=O)N[C@@H](CO)C(=O)N[C@@H](CC(=O)O)C(=O)N1CCC[C@H]1C(=O)N[C@@H](CCCNC(=N)N)C(=O)N2` [Vc1.1, reference compound] came in with an IC50 against GABABR-coupled Cav2.2 of 0.0024 µM.

Take `C[C@@H]1NC(=O)[C@@H]2CCCN2C(=O)[C@H](Cc2c[nH]cn2)NC(=O)[C@H](CO)NC(=O)[C@@H]2CSSC[C@@H](C(N)=O)NC(=O)[C@H](Cc3ccccc3)NC(=O)[C@H](Cc3ccc(O)cc3)NC(=O)[C@@H]3CCCN3C(=O)[C@H](CC(N)=O)NC(=O)[C@H](CC(N)=O)NC(=O)CNC(=O)[C@H](CO)NC(=O)[C@H](CSSC[C@H](NC(=O)CN)C(=O)N2)NC1=O` [Lt1.3-II] (H-GCCSHPACSGNNPYFC-NH2; disulfide 2-8, 3-16): the IC50 on GABABR-coupled Cav2.2 is > 10 µM; against α4β2 nAChR, > 10 µM; against α9α10 nAChR [2], > 10 µM; against rat α3β2 nAChRs, 0.0448 µM; against α7 nAChR it was > 10 µM; against α4β4 nAChR it was > 10 µM. Besides, the IC50 at α2β4 nAChR, against α3β4 nAChR and at α2β2 nAChR was > 10 µM throughout. At GABABR-coupled Cav2.2 (HEK-293T, read-out: inhibition of peak current amplitude, SEM), the inhibition (commonly the share of the control response that was lost under treatment) at 10 µM stood at 3.2 ± 1.8%. At rat α3β2 nAChRs, the “selectivity index (SI)” value is > 200.
